One assay has as its target T1, PTGER4 (Homo sapiens, UniProt P35408).
T1 construct: purchased Promega (in-house HiBiT-GPCR construct library, NanoBRET)
Put plainly: NanoBRET screen HiBiT-PTGER4 in HEK293. It counts as binding. The protocol: (§1) Each tracer candidate was screened across the entire library of HiBiT-GPCR constructs using NanoBRET as the detection modality. As depicted in Figure 4A, the specificity of interactions was evaluated through decrease in BRET due to competitive displacement of a bound tracer by excess parental compound. Each tracer was analyzed for binding to each HiBiT-GPCR fusion in the absence and in the presence of competing parental compound. Briefly, HEK293 cells were transfected with HiBiT-GPCR constructs diluted into promoterless DNA to reduce expression and maximize translocation to the cell surface. Each tracer candidate was then screened at concentrations of 1 μM and 0.1 μM across cells expressing these fusions. Cells were treated for 1.5 h with tracer either alone or in the presence of 20 μM competing parental compound (i.e., control). BRET was measured upon addition of purified LgBiT and subsequent complementation with HiBiT genetically fused to a GPCR. The specificity of interactions was assessed through a decrease in BRET signal due to competitive displacement of the bound tracer. To further gauge the robustness of these interactions, the fold response over the control (i.e., BRETtracer/BRETcontrol) was calculated. We chose a 1.5-fold response, which translates to ≥7-fold signal over noise as the minimal threshold required to score an interaction as positive. […]. Below we highlight the screening results obtained for our exemplary fluorescent tracers based on Clozapine, Amitriptyline and AZD1283.
(§2) HiBiT-GPCR DNA constructs were diluted in 10 mM Tris pH 8 to a final concentration of 0.01 μg/μL, arrayed in 96-well plates and stored at −20 °C. For transfection, HEK293 cells were suspended in Opti-MEM (without phenol red) supplemented with 2% fetal bovine serum (Seradigm) and 100 units/mL penicillin–streptomycin (Gibco) at a final concentration of 220,000 cells/mL and dispensed into white 96-well plates at 90 μL/well. Subsequent transfections and screens were carried using an Agilent Bravo Automated Liquid Handling Platform. First, the 96-well HiBiT DNA arrays were diluted 25-fold in Opti-MEM (without serum or phenol red) to a final concentration of 0.0004 μg/μL and 20 μL of the diluted DNAs were transferred into new 96-well plates. Next, promoterless carrier DNA (1 μg/μL) was diluted 25-fold (0.04 μg/μL) and then dispensed into the diluted arrays at 20 μL/well. Following brief mixing, Viafect transfection reagent (Promega) diluted 16-fold into Opti-MEM was dispensed into the plates at 40 μL/well. After mixing by pipetting, plates were incubated for 10 min on the pipetting station deck. The DNA-transfection reagent complexes were then added to plates containing cells. To facilitate the screen, 10 μL of DNA-transfection reagent complexes were added in duplicates to the top 4 and bottom 4 rows, resulting in two identical 48-well arrays per plate. Plates with transfected cells were incubated for 18–20 h at 37 °C/5% CO2. A screen of each tracer across the entire library using two different concentrations requires duplicate plates of transfected cells. Depending on the number of tracers being screened, transfections can be scaled up using the same ratios. The next day, for each tracer, four 20× screening solutions in tracer dilution buffer (Promega) were prepared: two duplicates at final concentration of 20 μM and two duplicates at a final concentration of 2 μM. A competing unmodified compound was added to one of each duplicate at a final concentration of 400 μM. The four resulting solutions were diluted 4-fold in Opti-MEM without serum or phenol red to generate 5× solutions (5 µM and 0.5 µM tracer +/− 100 μM competing compound). To screen the library, a BioTek MultiFlo FX liquid dispenser was used to dispense 22.5 µL of tracer solution to the top 4 rows and 22.5 µL tracer + competing compound solution to the 4 bottom rows. Plates were briefly mixed on an orbital shaker and incubated for 1.5 h at room temperature. […]

The next assay has as its target T2, GABBR2 (Homo sapiens, UniProt O75899).
T2 construct: purchased Promega (in-house HiBiT-GPCR construct library, NanoBRET)
T2 sequence (O75899 42-941): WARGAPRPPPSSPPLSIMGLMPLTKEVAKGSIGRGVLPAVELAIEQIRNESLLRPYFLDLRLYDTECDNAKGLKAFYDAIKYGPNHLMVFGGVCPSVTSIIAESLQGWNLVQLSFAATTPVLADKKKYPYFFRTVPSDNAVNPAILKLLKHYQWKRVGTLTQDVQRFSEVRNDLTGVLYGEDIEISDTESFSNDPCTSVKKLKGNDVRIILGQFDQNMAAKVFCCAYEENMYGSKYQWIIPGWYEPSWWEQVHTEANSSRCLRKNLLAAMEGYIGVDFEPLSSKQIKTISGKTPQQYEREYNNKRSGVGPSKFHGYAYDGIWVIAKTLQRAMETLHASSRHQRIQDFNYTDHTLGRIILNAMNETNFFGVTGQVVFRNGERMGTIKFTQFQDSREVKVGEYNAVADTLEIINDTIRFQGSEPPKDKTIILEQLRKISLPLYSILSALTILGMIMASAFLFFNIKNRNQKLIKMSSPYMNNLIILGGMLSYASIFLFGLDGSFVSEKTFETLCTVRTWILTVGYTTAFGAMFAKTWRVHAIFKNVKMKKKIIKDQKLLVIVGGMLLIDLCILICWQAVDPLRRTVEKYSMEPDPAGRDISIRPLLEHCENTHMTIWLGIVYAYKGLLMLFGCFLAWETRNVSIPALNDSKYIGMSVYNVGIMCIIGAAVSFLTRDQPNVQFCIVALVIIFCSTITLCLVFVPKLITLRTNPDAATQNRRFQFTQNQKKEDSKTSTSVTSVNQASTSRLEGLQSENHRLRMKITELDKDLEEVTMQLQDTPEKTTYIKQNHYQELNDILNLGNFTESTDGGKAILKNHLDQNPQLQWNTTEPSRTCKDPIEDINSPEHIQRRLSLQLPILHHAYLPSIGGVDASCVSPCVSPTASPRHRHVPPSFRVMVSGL
Put plainly: NanoBRET screen HiBiT-GABBR2 in HEK293. It counts as binding. The protocol:
as §1, §2

This is an account of results in publication PMC8151276, “An Integrated Approach toward NanoBRET Tracers for Analysis of GPCR Ligand Engagement” (Molecules, 2021).

T1 sequence (P35408 whole entry): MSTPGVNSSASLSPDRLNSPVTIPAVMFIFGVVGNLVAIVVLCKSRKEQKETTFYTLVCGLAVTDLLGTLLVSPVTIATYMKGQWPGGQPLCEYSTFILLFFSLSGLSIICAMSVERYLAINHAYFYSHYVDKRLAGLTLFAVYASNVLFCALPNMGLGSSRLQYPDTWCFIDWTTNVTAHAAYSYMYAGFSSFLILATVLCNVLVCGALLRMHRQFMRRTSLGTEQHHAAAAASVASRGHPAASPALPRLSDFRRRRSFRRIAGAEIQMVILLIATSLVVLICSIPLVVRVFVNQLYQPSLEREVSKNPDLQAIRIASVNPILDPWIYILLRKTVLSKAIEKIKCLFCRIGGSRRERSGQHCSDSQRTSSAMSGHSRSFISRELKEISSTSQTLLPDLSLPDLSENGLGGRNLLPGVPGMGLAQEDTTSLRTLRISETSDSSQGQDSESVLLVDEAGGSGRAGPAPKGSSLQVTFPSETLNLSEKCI

On to `O=C(CCOCCOCCOCCOCCNC(=O)CCc1ccc2n1[B-](F)(F)[N+]1=C(c3ccc[nH]3)C=CC1=C2)NCCCN1CCN(C2=Nc3cc(Cl)ccc3Nc3ccccc32)CC1` [Clozapine-a-2-NB590], for which the “NanoBRET Fold Response” value at PTGER4 (PTGER4, 0.1μM tracer) is 1.02; on PTGER4 (PTGER4, 1μM tracer), 1.06; on GABBR2 (GABBR2, 0.1μM tracer), 1.07; at GABBR2 (GABBR2, 1μM tracer) it was 0.80.

Regarding `COc1ccc2[nH]c(-c3ccc(CNC(=O)CCOCCOCCOCCOCCNC(=O)CCc4ccc5n4[B-](F)(F)[N+]4=C(c6ccc[nH]6)C=CC4=C5)cc3)c(CCNC(C)=O)c2n1` [AzomelatoninICO9-2-NB590], the “NanoBRET Fold Response” value is recorded as 0.97 on PTGER4 (0.1μM tracer), 0.97 at PTGER4 (1μM tracer), 0.87 on GABBR2 (0.1μM tracer) and 1.13 at GABBR2 (1μM tracer).

On to `CN1CCN(C2=Nc3cc(Cl)ccc3Nc3ccc(CNC(=O)CCOCCOCCOCCOCCNC(=O)CCc4ccc5n4[B-](F)(F)[N+]4=C(c6ccc[nH]6)C=CC4=C5)cc32)CC1` [Clozapine-b-2-NB590], for which the “NanoBRET Fold Response” value at PTGER4 (PTGER4, 0.1μM tracer) is 1.03; at PTGER4 (PTGER4, 1μM tracer) it was 1.03; at GABBR2 (GABBR2, 0.1μM tracer), 0.96; on GABBR2 (GABBR2, 1μM tracer), 1.07.

As for `COc1ccccc1N1CCN(CCCCN2C(=O)c3ccc(CNC(=O)CCOCCNC(=O)c4ccc(CNC(=O)CCc5ccc6n5[B-](F)(F)[N+]5=C(c7ccc[nH]7)C=CC5=C6)cc4)cc3C2=O)CC1` [NAN-190-3-NB590], the “NanoBRET Fold Response” value at PTGER4 (PTGER4, tracer 0.1μM) came to 1.00; on PTGER4 (PTGER4, tracer 1μM), 0.97; at GABBR2 (GABBR2, tracer 0.1μM), 1.03; at GABBR2 (GABBR2, tracer 1μM), 1.10.

As to `N#CN=C(NCCCOc1cccc(CN2CCCCC2)c1)NCCNC(=O)CCOCCOCCOCCOCCNC(=O)CCc1ccc2n1[B-](F)(F)[N+]1=C(c3ccc[nH]3)C=CC1=C2` [Aminopotentidine-2-NB590], the “NanoBRET Fold Response” value on PTGER4 (PTGER4, tracer 0.1μM) turned out to be 1.05; at PTGER4 (PTGER4, tracer 1μM) it was 1.03; at GABBR2 (GABBR2, tracer 0.1μM), 1.03; at GABBR2 (GABBR2, tracer 1μM), 0.94.

Regarding `CN(C)CCC=C1c2ccccc2CCc2ccc(C(=O)NCCNC(=O)CCOCCOCCOCCOCCNC(=O)CCc3ccc4n3[B-](F)(F)[N+]3=C(c5ccc[nH]5)C=CC3=C4)cc21` [Amitriptyline-b-2-NB590], the “NanoBRET Fold Response” value on PTGER4 (tracer at 0.1μM) is given as 0.99; at PTGER4 (tracer at 1μM) it was 1.04; on GABBR2 (tracer at 0.1μM, listed as amitriptyline-b-2-NB590), 1.13; at GABBR2 (tracer at 1μM, listed as amitriptyline-b-2-NB590) it was 1.30.

For the molecule `COc1ccccc1N1CCN(CCCCN2C(=O)c3ccc(CNC(=O)CCOCCOCCOCCOCCNC(=O)CCc4ccc5n4[B-](F)(F)[N+]4=C(c6ccc[nH]6)C=CC4=C5)cc3C2=O)CC1` [NAN-190-2-NB590], the “NanoBRET Fold Response” value at PTGER4 (PTGER4, tracer 0.1μM) amounted to 1.02; at PTGER4 (PTGER4, tracer 1μM), 1.01; at GABBR2 (GABBR2, tracer 0.1μM), 0.95; at GABBR2 (GABBR2, tracer 1μM), 1.04.

In the case of `O=C(CCOCCOCCOCCOCCNC(=O)CCc1ccc2n1[B-](F)(F)[N+]1=C(c3ccc[nH]3)C=CC1=C2)NCCCN1CCN(C2=Nc3ccccc3Oc3ccc(Cl)cc32)CC1` [Loxapine-a-2-NB590], the “NanoBRET Fold Response” value at PTGER4 (PTGER4, tracer 0.1μM) is on record as 0.97; at PTGER4 (PTGER4, tracer 1μM), 1.07; on GABBR2 (GABBR2, tracer 0.1μM), 1.03; at GABBR2 (GABBR2, tracer 1μM) it was 0.85.

For the molecule `CCCn1c(=O)c2[nH]c(-c3ccc(OCC(=O)NCCNC(=O)CCOCCNC(=O)c4ccc(CNC(=O)CCc5ccc6n5[B-](F)(F)[N+]5=C(c7ccc[nH]7)C=CC5=C6)cc4)cc3)nc2n(CCC)c1=O` [XAC-3-NB590], the “NanoBRET Fold Response” value at PTGER4 (PTGER4, tracer 0.1μM) turned out to be 1.15; on PTGER4 (PTGER4, tracer 1μM), 1.01; on GABBR2 (GABBR2, tracer 0.1μM) it was 1.02; on GABBR2 (GABBR2, tracer 1μM), 1.11.

`CCOC(=O)c1cc(C#N)c(N2CCC(C(=O)NS(=O)(=O)Cc3ccccc3/C=C/C(=O)NCCNC(=O)CCc3ccc4n3[B-](F)(F)[N+]3=C(c5ccc[nH]5)C=CC3=C4)CC2)nc1C` [AZD1283-1-NB590]: the “NanoBRET Fold Response” value on PTGER4 (PTGER4, 0.1μM) was 1.03; on PTGER4 (PTGER4, 1μM) it was 1.02; on GABBR2 (GABBR2, 0.1μM), 0.89; on GABBR2 (GABBR2, 1μM), 1.01.
